In ChEMBL document CHEMBL5724914, “Linking interpersonal differences in gut microbiota composition and drug biotransformation activity” (2024):

Details: human gut metagenome, 24 h, 2 µM
Further: call rule not given here.

Row | Structure (SMILES) | Bacterial Biotransformation
1 | COc1ccc2[nH]c([S+]([O-])Cc3ncc(C)c(OC)c3C)nc2n1 (centres undefined) [TENATOPRAZOLE] | Compound metabolized
2 | OC(Cn1cncn1)(Cn1cncn1)c1ccc(F)cc1F [FLUCONAZOLE] | Compound metabolized

Details: human gut metagenome, 24 h, 2 µM
Remark: another data set of the same source

Row | Structure (SMILES) | Bacterial Biotransformation
3 | COc1ccc2[nH]c([S+]([O-])Cc3ncc(C)c(OC)c3C)nc2n1 (centres undefined) [TENATOPRAZOLE] | Compound NOT metabolized
4 | OC(Cn1cncn1)(Cn1cncn1)c1ccc(F)cc1F [FLUCONAZOLE] | Compound metabolized

Assay: (§1) The drug is tested on Z-025 corresponding to rabbit gut metagenome with ENA study accession number: PRJEB37062 and ENA sample accession number: ERS12561824 for biotransformation under anaerobic condition. The drug concentrations were measured over 9 timepoints collected between 0 and 24 hours of incubation by liquid-chromatography-coupled mass spectrometry (LC–MS)
Details: 2 µM

Row | Structure (SMILES) | Bacterial Biotransformation
5 | COc1ccc2[nH]c([S+]([O-])Cc3ncc(C)c(OC)c3C)nc2n1 (centres undefined) [TENATOPRAZOLE] | Compound metabolized
6 | OC(Cn1cncn1)(Cn1cncn1)c1ccc(F)cc1F [FLUCONAZOLE] | Compound NOT metabolized

Details: human gut metagenome, 24 h, 2 µM
Remark: another data set of the same source

Row | Structure (SMILES) | Bacterial Biotransformation
7 | COc1ccc2[nH]c([S+]([O-])Cc3ncc(C)c(OC)c3C)nc2n1 (centres undefined) [TENATOPRAZOLE] | Compound metabolized
8 | OC(Cn1cncn1)(Cn1cncn1)c1ccc(F)cc1F [FLUCONAZOLE] | Compound NOT metabolized

Details: human gut metagenome, 24 h, 2 µM
Remark: another data set of the same source

Row | Structure (SMILES) | Bacterial Biotransformation
9 | COc1ccc2[nH]c([S+]([O-])Cc3ncc(C)c(OC)c3C)nc2n1 (centres undefined) [TENATOPRAZOLE] | Compound metabolized
10 | OC(Cn1cncn1)(Cn1cncn1)c1ccc(F)cc1F [FLUCONAZOLE] | Compound NOT metabolized

Details: human gut metagenome, 24 h, 2 µM
Remark: another data set of the same source

Row | Structure (SMILES) | Bacterial Biotransformation
11 | COc1ccc2[nH]c([S+]([O-])Cc3ncc(C)c(OC)c3C)nc2n1 (centres undefined) [TENATOPRAZOLE] | Compound metabolized
12 | OC(Cn1cncn1)(Cn1cncn1)c1ccc(F)cc1F [FLUCONAZOLE] | Compound metabolized

Assay: as §1, with “Z-030” for “Z-025”, “mouse” for “rabbit”, “ERS12561829” for “ERS12561824”
Details: 2 µM

Row | Structure (SMILES) | Bacterial Biotransformation
13 | COc1ccc2[nH]c([S+]([O-])Cc3ncc(C)c(OC)c3C)nc2n1 (centres undefined) [TENATOPRAZOLE] | Compound metabolized
14 | OC(Cn1cncn1)(Cn1cncn1)c1ccc(F)cc1F [FLUCONAZOLE] | Compound NOT metabolized

Details: human gut metagenome, 24 h, 2 µM
Remark: another data set of the same source

Row | Structure (SMILES) | Bacterial Biotransformation
15 | OC(Cn1cncn1)(Cn1cncn1)c1ccc(F)cc1F [FLUCONAZOLE] | Compound metabolized

Details: human gut metagenome, 24 h, 2 µM
Remark: another data set of the same source

Row | Structure (SMILES) | Bacterial Biotransformation
16 | COc1ccc2[nH]c([S+]([O-])Cc3ncc(C)c(OC)c3C)nc2n1 (centres undefined) [TENATOPRAZOLE] | Compound NOT metabolized
17 | OC(Cn1cncn1)(Cn1cncn1)c1ccc(F)cc1F [FLUCONAZOLE] | Compound NOT metabolized

Details: human gut metagenome, 24 h, 2 µM
Remark: another data set of the same source

Row | Structure (SMILES) | Bacterial Biotransformation
18 | COc1ccc2[nH]c([S+]([O-])Cc3ncc(C)c(OC)c3C)nc2n1 (centres undefined) [TENATOPRAZOLE] | Compound metabolized
19 | OC(Cn1cncn1)(Cn1cncn1)c1ccc(F)cc1F [FLUCONAZOLE] | Compound NOT metabolized

Assay: as §1, with “WLS-086” for “Z-025”, “human” for “rabbit”, “ERS12561752” for “ERS12561824”
Details: 2 µM

Row | Structure (SMILES) | Bacterial Biotransformation
20 | COc1ccc2[nH]c([S+]([O-])Cc3ncc(C)c(OC)c3C)nc2n1 (centres undefined) [TENATOPRAZOLE] | Compound metabolized
21 | OC(Cn1cncn1)(Cn1cncn1)c1ccc(F)cc1F [FLUCONAZOLE] | Compound metabolized

Assay: as §1, with “Z-019” for “Z-025”, “rat” for “rabbit”, “ERS12561818” for “ERS12561824”
Details: 2 µM

Row | Structure (SMILES) | Bacterial Biotransformation
22 | COc1ccc2[nH]c([S+]([O-])Cc3ncc(C)c(OC)c3C)nc2n1 (centres undefined) [TENATOPRAZOLE] | Compound metabolized
23 | OC(Cn1cncn1)(Cn1cncn1)c1ccc(F)cc1F [FLUCONAZOLE] | Compound NOT metabolized

Assay: as §1, with “Z-023” for “Z-025”, “to” for “to rabbit gut”, “ERS12561822” for “ERS12561824”
Details: 2 µM

Row | Structure (SMILES) | Bacterial Biotransformation
24 | COc1ccc2[nH]c([S+]([O-])Cc3ncc(C)c(OC)c3C)nc2n1 (centres undefined) [TENATOPRAZOLE] | Compound NOT metabolized
25 | OC(Cn1cncn1)(Cn1cncn1)c1ccc(F)cc1F [FLUCONAZOLE] | Compound metabolized

Details: human gut metagenome, 24 h, 2 µM
Remark: another data set of the same source

Row | Structure (SMILES) | Bacterial Biotransformation
26 | COc1ccc2[nH]c([S+]([O-])Cc3ncc(C)c(OC)c3C)nc2n1 (centres undefined) [TENATOPRAZOLE] | Compound NOT metabolized
27 | OC(Cn1cncn1)(Cn1cncn1)c1ccc(F)cc1F [FLUCONAZOLE] | Compound NOT metabolized

Assay: as §1, with “Z-016” for “Z-025”, “mouse” for “rabbit”, “ERS12561815” for “ERS12561824”
Details: 2 µM

Row | Structure (SMILES) | Bacterial Biotransformation
28 | COc1ccc2[nH]c([S+]([O-])Cc3ncc(C)c(OC)c3C)nc2n1 (centres undefined) [TENATOPRAZOLE] | Compound metabolized
29 | OC(Cn1cncn1)(Cn1cncn1)c1ccc(F)cc1F [FLUCONAZOLE] | Compound NOT metabolized

Assay: as §1, with “WLS-310” for “Z-025”, “human” for “rabbit”, “ERS12561785” for “ERS12561824”
Details: 2 µM

Row | Structure (SMILES) | Bacterial Biotransformation
30 | COc1ccc2[nH]c([S+]([O-])Cc3ncc(C)c(OC)c3C)nc2n1 (centres undefined) [TENATOPRAZOLE] | Compound metabolized
31 | OC(Cn1cncn1)(Cn1cncn1)c1ccc(F)cc1F [FLUCONAZOLE] | Compound metabolized

Assay: as §1, with “Z-014” for “Z-025”, “rat” for “rabbit”, “ERS12561814” for “ERS12561824”
Details: 2 µM

Row | Structure (SMILES) | Bacterial Biotransformation
32 | COc1ccc2[nH]c([S+]([O-])Cc3ncc(C)c(OC)c3C)nc2n1 (centres undefined) [TENATOPRAZOLE] | Compound metabolized
33 | OC(Cn1cncn1)(Cn1cncn1)c1ccc(F)cc1F [FLUCONAZOLE] | Compound NOT metabolized

Assay: as §1, with “Z-018” for “Z-025”, “pig” for “rabbit”, “ERS12561817” for “ERS12561824”
Details: 2 µM

Row | Structure (SMILES) | Bacterial Biotransformation
34 | COc1ccc2[nH]c([S+]([O-])Cc3ncc(C)c(OC)c3C)nc2n1 (centres undefined) [TENATOPRAZOLE] | Compound metabolized
35 | OC(Cn1cncn1)(Cn1cncn1)c1ccc(F)cc1F [FLUCONAZOLE] | Compound NOT metabolized

Details: human gut metagenome, 24 h, 2 µM
Remark: another data set of the same source

Row | Structure (SMILES) | Bacterial Biotransformation
36 | COc1ccc2[nH]c([S+]([O-])Cc3ncc(C)c(OC)c3C)nc2n1 (centres undefined) [TENATOPRAZOLE] | Compound NOT metabolized
37 | OC(Cn1cncn1)(Cn1cncn1)c1ccc(F)cc1F [FLUCONAZOLE] | Compound metabolized

Details: human gut metagenome, 24 h, 2 µM
Remark: another data set of the same source

Row | Structure (SMILES) | Bacterial Biotransformation
38 | COc1ccc2[nH]c([S+]([O-])Cc3ncc(C)c(OC)c3C)nc2n1 (centres undefined) [TENATOPRAZOLE] | Compound NOT metabolized
39 | OC(Cn1cncn1)(Cn1cncn1)c1ccc(F)cc1F [FLUCONAZOLE] | Compound NOT metabolized
